Laboratory results published in patent US5624923A, “Tricyclic diazepine vasopressin antagonists and oxytocin antagonists” (priority 1995, dated 1997).

Assays:
[1] = test system: Vasopressin V2; assay: Vasopressin V2 Antagonist Activity in Conscious Hydrated Rats; format: in vivo, rat; details: 10 mg/kg orally, AVP 0.4 μg/kg i.p.
Method in brief: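 Four-hour urine output, osmolality and electrolytes (Na+, K+, Cl−) recorded in water-loaded rats (30 mL/kg deionized water orally) given AVP i.p. at 0.4 μg/kg. Test compounds were given orally at 0.1–100 mg/kg 1 h before AVP; 2–4 rats per compound.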

[2] = target: T1, V1 Receptor Subtype in Human Platelet (Homo sapiens, UniProt P37288); assay: Binding to Vasopressin V1 receptor subtype in Human Platelet Membranes; details: for IC50: human platelet membranes; for inhibition at 1 µM: 1.5 h, human platelet
T1 construct: tissue Hudson Valley Blood Services, Westchester Medical Center, Valhalla, N.Y; host or cells: human platelets (frozen platelet rich plasma)
Description: Radioligand Binding Experiments with Human Platelet Membranes (a) Platelet Membrane Preparation: Frozen platelet rich plasma (PRP), (Platelet Source: Hudson Valley Blood Services, Westchester Medical Center, Valhalla, N.Y.) are thawed to room temperature. The tubes containing the PRP are centrifuged at 16,000×g for 10 min. at 4° C. and the supernatant fluid discarded. […] The suspension is recentrifuged at 16,000× g for 10 min. This washing step is repeated one more time. The wash discarded and the lysed pellets homogenized in low ionic strength buffer of Tris.HCl, 5.0 mM, pH 7.5 containing 5.0 mM EDTA. The homogenate is centrifuged at 39,000× g for 10 min. The resulting pellet is resuspended in Tris. […] The final pellet is resuspended in 50.0 mM Tris. HCl buffer pH 7.4 containing 120 mM NaCl and 5.0 mM KCl to give 1.0-2.0 mg protein per ml of suspension. […] Platelet Membranes […] Then add 20 μl of [^3 H]Ligand (Manning or […] Vasopressin), to give final concentrations ranging from 0.01 to 10.0 nM. Initiate the binding by adding 80.0 μl of platelet suspension (approx. 100 μg protein). Mix all reagents by pipetting the mixture up and down a few times. Non specific binding is measured in the presence of 1.0 μM of unlabeled ligand (Manning or […] Vasopressin). Let the mixture stand undisturbed at room temperature for ninety (90) min. Upon this time, rapidly filter off the incubate under vacuum suction over GF/B filters, using a Brandel Harvester. Determine the radioactivity caught on the filter disks by the addition of liquid scintillant and counting in a liquid scintillator.

[3] = target: T2, Human V2 Vasopressin Receptor (Homo sapiens, UniProt P30518); assay: Binding to Membranes of Mouse Fibroblast Cell Line (LV-2) Transfected with the cDNA Expressing the Human V2 Vasopressin Receptor; details: human V2; for IC50: LV-2 cell membranes, read-out: V2 IC50 (**)
T2 construct: expressed in transfected cells; host or cells: mouse fibroblast cell line LV-2
Description: Binding to Membranes of Mouse Fibroblast Cell Line (LV-2) Transfected with the cDNA Expressing the Human V2 Vasopressin Receptor
Flasks of 175 ml capacity, containing attached cells grown to confluence, are cleared of culture medium by aspiration. The flasks containing the attached cells are rinsed with 2×5 ml of phosphate buffered saline (PBS) and the liquid aspirated off each time. Finally, 5 ml of an enzyme free dissociation Hank's based solution (Specialty Media, Inc., Lafayette, N.J.) is added and the flasks are left undisturbed for 2 min. The content of all flasks is. poured into a centrifuge tube and the cells pelleted at 300× g for 15 min. The Hank's based solution is aspirated off and the cells homogenized with a polytron at setting #6 for 10 sec in 10.0 mM Tris.HCl buffer, pH 7.4 containing 0.25M sucrose and 1.0 mM EDTA. The homogenate is centrifuged at 1500× g for 10 min to remove ghost membranes. The supernatant fluid is centrifuged at 100,000× g for 60 min. to pellet the receptor protein. Upon completion, the pellet is resuspended in a small volume of 50.0 mM Tris. HCl buffer, pH 7.4. The protein content is determined by the Lowry method and the receptor membranes are suspended in 50.0 mM Tris.HCl buffer containing 0.1 mM phenylmethylsulfonylfluoride (PMSF) and 0.2% bovine serum albumin (BSA) to give 2.5 mg receptor protein per ml of suspension.
Arginine^8, vasopressin (S.A. 75.0 Ci/mmole) at 0.8 nM and the reaction initiated by the addition of 80.0 μl of tissue membranes (200.0 μg tissue protein). The plates are left undisturbed on the bench top for 120 min to reach equilibrium. Non specific binding is assessed in the presence of 1.0 μM of unlabeled ligand, added in 20 μl volume. For test compounds, these are solubilized in 50% dimethylsulfoxide (DMSO) and added in 20.0 μl volume to a final incubation volume of 200 μl. Upon completion of binding, the content of each well is filtered off, using a Brandel® cell Harvester (Gaithersburg, Md.). The radioactivity trapped on the filter disk by the ligand-receptor complex is assessed by liquid scintillation counting in a Packard LS Counter, with an efficiency of 65% for tritium. The data are analyzed for IC50 values by the LUNDON-2 program for competition (LUNDON SOFTWARE, Ohio).

[4] = target: T3, oxytocin receptors (Rattus norvegicus, UniProt P70536); assay: Oxytocin Receptor Binding; details: for IC50: 1.0 nM [3H]oxytocin
T3 construct: The uteri are dissected out, cleaned of fat and connective tissues; from tissue; host or cells: uterus of DES-treated female Sprague-Dawley rats
T3 sequence (P70536 1-388): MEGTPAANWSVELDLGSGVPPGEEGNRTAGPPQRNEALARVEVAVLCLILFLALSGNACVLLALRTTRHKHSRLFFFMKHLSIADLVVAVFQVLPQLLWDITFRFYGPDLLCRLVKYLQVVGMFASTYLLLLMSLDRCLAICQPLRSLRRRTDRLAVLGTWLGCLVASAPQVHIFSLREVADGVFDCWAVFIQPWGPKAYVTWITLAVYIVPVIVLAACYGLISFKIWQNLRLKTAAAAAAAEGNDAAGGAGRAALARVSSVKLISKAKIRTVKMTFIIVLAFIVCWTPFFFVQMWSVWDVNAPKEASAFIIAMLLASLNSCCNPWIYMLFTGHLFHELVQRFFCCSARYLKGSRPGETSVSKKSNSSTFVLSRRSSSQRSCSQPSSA
Method in brief: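 IC50 is the concentration displacing 50% of 1.0 nM [3H]OT, incubated 60 min at 22 °C in pH 7.4 Tris/MgCl2 buffer plus protease inhibitors, then filtered. Receptor source: uterine membranes from rats given 0.3 mg/kg DES i.m. 18 h earlier. 1.0 uM cold OT defined non-specific binding.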

T1 sequence (P37288 whole entry): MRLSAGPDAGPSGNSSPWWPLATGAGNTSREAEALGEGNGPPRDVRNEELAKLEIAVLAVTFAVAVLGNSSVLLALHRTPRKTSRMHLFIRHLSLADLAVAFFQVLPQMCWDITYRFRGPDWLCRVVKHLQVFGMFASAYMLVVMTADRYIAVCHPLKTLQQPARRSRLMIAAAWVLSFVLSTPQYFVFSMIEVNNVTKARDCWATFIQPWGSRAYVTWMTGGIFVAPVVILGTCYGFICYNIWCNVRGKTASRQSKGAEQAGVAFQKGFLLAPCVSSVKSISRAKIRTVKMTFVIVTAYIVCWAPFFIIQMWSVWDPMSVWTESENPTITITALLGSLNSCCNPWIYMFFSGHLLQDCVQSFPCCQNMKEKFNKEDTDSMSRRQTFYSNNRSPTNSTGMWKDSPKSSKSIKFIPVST
T2 sequence (P30518 whole entry): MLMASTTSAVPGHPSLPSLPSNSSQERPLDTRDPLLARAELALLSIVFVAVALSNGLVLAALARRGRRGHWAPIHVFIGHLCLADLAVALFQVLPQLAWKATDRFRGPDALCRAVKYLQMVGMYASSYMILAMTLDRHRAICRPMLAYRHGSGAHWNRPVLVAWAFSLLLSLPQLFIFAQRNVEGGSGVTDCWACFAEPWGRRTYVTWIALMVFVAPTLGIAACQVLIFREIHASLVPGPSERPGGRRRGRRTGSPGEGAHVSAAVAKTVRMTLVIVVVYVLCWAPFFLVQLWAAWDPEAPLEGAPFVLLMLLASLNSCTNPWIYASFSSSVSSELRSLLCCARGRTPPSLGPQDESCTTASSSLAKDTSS

Row | SMILES | IC50 [2] [nM] | IC50 [3] [nM] | further results
1 | Cc1ccc(F)cc1C(=O)Nc1ccc(C(=O)N2Cc3ccc(CN(C)C)n3Cc3ccccc32)c(Cl)c1 [Example 668, N-[4-[[3-[(dimethylamino)methyl]-5H-pyrrolo[2,1-c][1,4]benzodiazepin-10(11H)-yl]carbonyl]-3-chlorophenyl]-5-fluoro-2-methylbenzamide] | 170 | 29 | Osmolality [1]: 378 mOsm/kg; Urine Volume [1]: 20.7 ml/4 hrs
2 | O=C(Nc1ccc(C(=O)N2CCc3cccn3-c3ccccc32)c(Cl)c1)c1ccc(Cl)cc1Cl [Example 609, N-[4-[(6,7-Dihydro-5H-pyrrolo[1,2-a]-[1,5]benzodiazepin-5-yl)carbonyl]-3-chlorophenyl]-2,4-dichlorobenzamide] | 2400 | 21 | IC50 [4]: 2700 nM; inhibition at 10 µM ([4]; [3H]oxytocin): 66%
3 | Cc1ccc(F)cc1C(=O)Nc1ccc(C(=O)N2Cc3cccn3Cc3ccccc32)cc1Cl [Example 547, N-[4-(5H-pyrrolo[2,1-c][1,4]benzodiazepin-10(11H)-ylcarbonyl)-2-chlorophenyl]-5-fluoro-2-methylbenzamide] | 16 | 4 | IC50 [4]: 260 nM; inhibition at 5 µM ([4]; dose 5 μM, [3H]oxytocin): 97%
4 | COc1cc(NC(=O)c2ccccc2C)c(Cl)cc1C(=O)N1Cc2cccn2Cc2ccccc21 [Example 703, N-[4-(5H-pyrrolo[2,1-c][1,4]benzodiazepin-10(11H)-ylcarbonyl)-6-chloro-3-methoxyphenyl]-2-methylbenzamide] | – | – | inhibition at 1 µM [2]: 35%; inhibition at 1 µM [3]: 87%
5 | O=C(Nc1ccc(C(=O)N2Cc3cccn3Cc3ccccc32)c(Cl)c1)c1ccccc1F [Example 523, N-[4-(5H-pyrrolo[2,1-c][1,4]benzodiazepin-10(11H)-ylcarbonyl)-3-chlorophenyl]-2-fluorobenzamide] | 110 | 2.8 | Osmolality [1]: 1218 mOsm/kg; Urine Volume [1]: 5 ml/4 hrs
6 | Cc1ccc(F)cc1C(=O)Nc1ccc(C(=O)N2Cc3ccnn3Cc3ccccc32)c(Cl)c1 [Example 518, N-[4-(4H-Pyrazolo[5,1-c][1,4]benzodiazepin-5(10H)-ylcarbonyl)-3-chlorophenyl]-5-fluoro-2-methylbenzamide] | 220 | 1.7 | Osmolality [1]: 363 mOsm/kg; Urine Volume [1]: 17.5 ml/4 hrs
7 | CSc1ccc(Cl)c(C(=O)Nc2ccc(C(=O)N3Cc4cccn4Cc4ccccc43)c(Cl)c2)c1 [Example 700, N-[4-(5H-pyrrolo[2,1-c][1,4]benzodiazepin-10(11H)-ylcarbonyl)-3-chloro-phenyl]-2-chloro-5-(methylthio)benzamide] | – | – | inhibition at 1 µM [2]: 77%; inhibition at 10 µM ([3]; 10 μM): 100%
8 | O=C(Nc1ccc(C(=O)N2Cc3cccn3Cc3ccccc32)c(Cl)c1)c1ccc(F)cc1C(F)(F)F [Example 707, N-[4-(5H-pyrrolo[2,1-c][1,4]benzodiazepin-10(11H)-ylcarbonyl)-3-chlorophenyl]-2-(trifluoromethyl)-4-fluorobenzamide] | 200 | 6 | –
9 | Cc1ccccc1C(=O)Nc1ccc(C(=O)N2Cc3ccc(CN(C)C)n3Cc3ccccc32)c(Cl)c1 [Example 669, N-[4-[[3-[(dimethylamino)methyl]-5H-pyrrolo[2,1-c][1,4]benzodiazepin-10(11H)-yl]carbonyl]-3-chlorophenyl]-2-methylbenzamide] | 71 | 35 | –
10 | Cc1ccc(F)cc1C(=O)Nc1ccc(C(=O)N2CCc3cccn3-c3ccccc32)c(Cl)c1 [Example 612, N-[4-[(6,7-Dihydro-5H-pyrrolo[1,2-a]-[1,5]benzodiazepin-5-yl)carbonyl]-3-chlorophenyl]-5-fluoro-2-methyl-benzamide] | 1700 | 10 | –
11 | COc1cc(C(=O)N2Cc3cccn3Cc3ccccc32)ccc1NC(=O)c1cc(C)ccc1C [Example 704, N-[4-(5H-pyrrolo[2,1-c][1,4]benzodiazepin-10(11H)-ylcarbonyl)-2-methoxyphenyl]-2,5-dimethylbenzamide] | – | – | inhibition at 1 µM [2]: 100%; inhibition at 1 µM [3]: 92%
12 | COc1ccc(C(=O)Nc2ccc(C(=O)N3Cc4cccn4Cc4ccccc43)c(Cl)c2)c(Cl)c1OC [Example 702, N-[4-(5H-pyrrolo[2,1-c][1,4]benzodiazepin-10(11H)-ylcarbonyl)-3-chloro-phenyl]-2-chloro-3,4-dimethoxybenzamide] | – | – | inhibition at 1 µM [2]: 9%; inhibition at 1 µM [3]: 85%

Continued, in another order:

Row | IC50 [2] [nM] | IC50 [3] [nM] | SMILES | further results
13 | 52 | 1 | O=C(Nc1ccc(C(=O)N2Cc3cccn3Cc3ccccc32)c(Cl)c1)c1cccc(F)c1 [Example 538, N-[4-(5H-pyrrolo[2,1-c][1,4]benzodiazepin-10(11H)-ylcarbonyl)-3-chlorophenyl]-3-fluorobenzamide] | IC50 [4]: 900 nM; inhibition at 10 µM ([4]; [3H]oxytocin): 90%
14 | 15 | 1.8 | COc1cc(NC(=O)c2cc(F)ccc2C)ccc1C(=O)N1Cc2cccn2Cc2ccccc21 [Example 695] | –
15 | 2 | 31 | COc1cc(C(=O)N2Cc3cccn3Cc3ccccc32)ccc1NC(=O)CC(C)C [Example 716] | –
16 | 66 | 73 | Cc1c(F)cccc1C(=O)Nc1ccc(C(=O)N2Cc3cccn3Cc3ccccc32)cc1Cl [Example 546, N-[4-(5H-pyrrolo[2,1-c][1,4]benzodiazepin-10(11H)-ylcarbonyl)-2-chlorophenyl]-3-fluoro-2-methylbenzamide] | IC50 [4]: 990 nM; inhibition at 10 µM ([4]; [3H]oxytocin): 91%
17 | 85 | 540 | O=C(Nc1ccc(C(=O)N2Cc3cccn3Cc3ccccc32)cc1)c1ccccc1O [Example 689, N-[4-(5H-pyrrolo[2,1-c][1,4]benzodiazepin-10(11H-)-ylcarbonyl)phenyl]-2-hydroxybenzamide] | –
